Measurements published in publication PMC8305076, “Comprehensive Evaluation of Biological Effects of Pentathiepins on Various Human Cancer Cell Lines and Insights into Their Mode of Action” (International Journal of Molecular Sciences, 2021).
Where two headings read alike, the source gives them in different places.

What was measured:
bovine erythrocyte GPx1 = biological target: T1, bovine erythrocyte GPx1 (Bos taurus, UniProt P00435); assay: GPx1 enzyme activity assay (NADPH-coupled, t-BHP substrate); format: biochemical; set-up: key to GPx1 inhibition: no impact (0); weak impact (+); strong impact (++); details: for IC50: n ≥ 3; for GPx1 inhibition: summary grade
T1 construct: the isolated enzyme from bovine erythrocytes; purchased Sigma-Aldrich (Taufkirchen, Germany); host or cells: isolated from bovine erythrocytes
T1 sequence (P00435 1-205): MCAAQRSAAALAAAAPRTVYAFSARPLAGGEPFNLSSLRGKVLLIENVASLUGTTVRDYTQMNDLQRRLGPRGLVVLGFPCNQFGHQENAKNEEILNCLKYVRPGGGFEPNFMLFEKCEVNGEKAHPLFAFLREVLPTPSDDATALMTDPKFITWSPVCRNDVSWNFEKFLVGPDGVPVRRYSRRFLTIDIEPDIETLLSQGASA
Text: The inhibition of GPx1 by pentathiepins has already been reported by us previously. […] The resulting glutathione disulfide (GSSG) was reduced back to GSH by glutathione reductase (GR), thereby converting NADPH to NADP^+, which can be photometrically monitored at λ = 340 nm. The rate of NADPH consumption was used to quantify GPx1 enzyme activity. Dose-response graphs are presented in Figure 5a, and the corresponding IC50 values in Table 1. Relative IC50 describing the half-maximal inhibition of the enzyme were derived from the inflection point of the sigmoidal shaped graphs. Absolute IC50 was calculated via interpolation of the standard curve resulting in the concentration at which 50% of the GPx1 was inhibited.
The potential of the pentathiepins to inhibit the GPx1 was assessed with an enzymatic assay as described previously. It is based on the catalytic cycle of the enzyme coupled to an NADPH detection reaction. Here, a bovine erythrocyte GPx1 with a sequence similarity of 87% to the human homolog was used for reasons of affordability. The GPx1 was treated with either vehicle (solvent DMF) or the respective pentathiepin, and the reaction started by addition of tert-butylhydroperoxide (t-BHP). For the assay, all solutions were prepared with potassium phosphate buffer (50 mM, pH 7.4, EDTA 1.1 mM, Triton-X 0.01%), except for the inhibitors and t-BHP, which were diluted in DMF or water, respectively. First, 180 µL of a 0.125 U/mL GPx1 solution and 30 µL of a serial dilution of the putative inhibitor dissolved in DMF were added in triplicate to the wells of a UV-transparent 96-well plate. As a negative control, only DMF was appliedat the same dilution as the inhibitor solution.. All reagents including the GPx1 solution were pipetted. Then, 30 µL of a GSH solution (2.5 mM) and 30 µL of a GR/NADPH solution (2 U/mL; 2.0 mM) were added per well. The reaction was started by adding 30 µL of a t-BHP solution (5.0 mM). […] GPx1 activity was indirectly measured by monitoring the decrease of NADPH at λ = 340 nm for 30 min every 15 s at room temperature. The GPx1 activity of the treated samples was related to the solvent treated control and the relative activities analyzed in Prism 7 (GraphPad) via dose–response graphs and the calculation of the inflection point corresponding to the relative IC50 (half-maximal inhibitory concentration). The relative IC50 corresponds to the concentration at which half of the effect of the test compound is achieved. An absolute IC50, where 50% of the enzyme is inhibited, was calculated via interpolation of the sigmoidal graph.

GR/CAT = GR/CAT inhibition (summary of off-target assays); format: biochemical; set-up: key: no impact (0); weak impact (+); strong impact (++); details: summary grade
Experimental: To assess the specificity of inhibitors toward the GPx1, we performed enzymatic assays with other relevant antioxidant enzymes. These included the glutathione reductase (GR; yeast-derived), which is an auxiliary component of the GPx1 assay, and catalase (CAT; bovine), a key redox enzyme that fulfils a similar enzymatic task as the GPx1 by detoxifying hydrogen peroxide. None of the pentathiepins altered the activity of either enzyme at a concentration of 25 µM (Figure 5b,c).
Off-target assays were conducted to assess the specificity of the pentathiepins for inhibiting the GPx1; these were the activities of GR and CAT (from bovine liver) that have previously been described. As the baker’s yeast GR is an important component in the GPx assay, its inhibition by pentathiepins had to be excluded. A fixed pentathiepin concentration of 25 µM was tested in triplicate, following the same principle as mentioned before, by monitoring the consumption of NADPH by the GR at λ = 340 nm while GSSG is reduced back to GSH. All assay components were prepared in potassium phosphate buffer (50 mM, pH 7.4, 1.1 mM EDTA, 0.01% Triton-X solution), except for the inhibitor that was diluted in DMF. Subsequently, 180 µL of buffer was added per well followed by 30 µL of a 2.0 U/mL GR solution, 30 µL of a 2.0 mM NADPH solution, and 30 µL of a 250 µM pentathiepin solution or 30 µL of DMF as negative control. Finally, to start the reaction, 30 µL of a 2.5 mM GSSG solution was added, resulting in final concentrations of 0.2 U/mL of GR, 0.2 mM of NADPH, 25 µM of pentathiepin, and 0.25 mM of GSSG. After measuring the decrease of NADPH every 15 s for 30 min at room temperature, the relative inhibition of the GR was calculated by relating the activity of the pentathiepin-treated samples to the negative control.
The CAT activity assay is based on the principle that in the presence of H2O2 and heat, and dichromate in acetic acid is reduced to chromic acetate via perchromic acid as unstable intermediate. Here, the amount of chromic acetate is measured twice, once directly after adding H2O2 (t0min) and once again after the CAT (bovine origin) split the H2O2 for a period of 10 min (t10min) in the presence or absence of a putative inhibitor. Samples in this assay included a blank (+CAT/+DMF/−H2O2), a H2O2 standard (−CAT/+DMF/+H2O2), a negative control (+CAT/+DMF/+H2O2), and the test conditions (+CAT/+25 µM pentathiepin/+H2O2). For each condition, 3.0 mL of 0.002 mg/mL CAT in potassium phosphate buffer (50 mM, pH 7.4, EDTA 1.1 mM, Triton-X 0.01%) were prepared in a glass tube. Additionally, two tubes were prepared per condition each containing 2 mL of a reagent containing 1 part of an aqueous solution of K2Cr2O7 (5%) and 2 parts glacial acetic acid. Subsequently, the solvent or inhibitors were added, and the tubes placed on a shaker for 5 min. To start the reaction, 61.8 µL of a 30% H2O2 solution was added and then mixed, and immediately 1 mL was transferred to one tube containing the K2Cr2O7/acetic acid solution (t0min). The remaining 2 mL was incubated on a shaker for 10 min, and then the previous step was repeated (t10min). Finally, all tubes were boiled in a water bath and cooled down to room temperature, and then absorbance was measured at λ = 570 nm and the instrument was blanked with the blank solution. The difference in absorbance between t0min and t10min was calculated, and all samples were related to the negative control.

[1] = absolute IC50 (interpolation, 50% of GPx1 inhibited), read-out: Abs. IC50 (SD)
[2] = relative IC50 (inflection point of dose-response graph), t-BHP substrate, read-out: Rel. IC50 (CI 95%)
[3] = residual GPx1 activity at highest tested concentration of 12.5 µM

IC50 (bovine erythrocyte GPx1; [1]) [nM] | IC50 (bovine erythrocyte GPx1; [2]) [nM] | remaining activity at 12.5 µM (bovine erythrocyte GPx1; [3]) [%] | Residual Activity (%) (bovine erythrocyte GPx1; residual GPx1 activity at highest tested concentration of 12.5 µM, 12.5 µM) | GPx1 inhibition (bovine erythrocyte GPx1) | decrease of the activity of the bovine GPx (bovine erythrocyte GPx1; at 12.5 µM) [%] | SMILES | GR/CAT inhibition (GR/CAT)
1490 | 920 | 16 | 16.4 | ++ |  | CCOc1c2c(c3cnc4[nH]c(-c5ccc(OC)cc5)cc4n13)SSSSS2 [Compound 1, 11-Ethoxy-2-(4-methoxyphenyl)-3H-[1,2,3,4,5]pentathiepino[6′,7′:3,4]pyrrolo[1,2-a]pyrrolo[2,3-e]pyrazine] | 0
3250 | 2280 | 27.5 |  | + |  | CCOc1c2c(c3ccc(C(=O)N4CCCCC4)cn13)SSSSS2 [Compound 2, (6-Ethoxy-[1,2,3,4,5]pentathiepino[6,7-a]indolizin-9-yl)(piperidinyl)methanone] | 0
910 | 560 | 29 |  | ++ |  | CCOc1c2c(c3ccc(C(=O)N4CCOCC4)cn13)SSSSS2 [Compound 3, (6-Ethoxy-[1,2,3,4,5]pentathiepino[6,7-a]indolizin-9-yl)(morpholino)methanone] | 0
750 | 600 | 27.9 |  | ++ |  | CCOc1c2c(c3ccc(C(=O)N(CC)CC)cn13)SSSSS2 [Compound 4, 6-Ethoxy-N,N’-diethyl-[1,2,3,4,5]pentathiepino[6,7-a]indolizine-9-carboxamide] | 0
1170 | 630 | 28.7 |  | ++ |  | CCOc1c2c(c3ccc(C(=O)N4CCN(C(=O)c5ccc(F)cc5)CC4)cn13)SSSSS2 [Compound 5, (6-Ethoxy-[1,2,3,4,5]pentathiepino[6,7-a]indolizin-9-yl)(4-(4-fluorobenzoyl)piperazinyl)methanone] | 0
> 12500 | > 12500 | 53.3 |  | 0 | ≤ 50 | CCOc1c2c(c3ccc(C(=O)N4CCN(S(=O)(=O)c5ccc(C)cc5)CC4)cn13)SSSSS2 [Compound 6, (6-Ethoxy-[1,2,3,4,5]pentathiepino[6,7-a]indolizin-9-yl)(4-tosylpiperazinyl)methanone] | 0
